Experimental data reported in patent publication US20260083851A1 (AVILAR THERAPEUTICS, INC., priority 2022, published 2026).
Read-outs that look alike come from different tables or passages of the source.

Molecular target: T1, ASGP receptor (biotinylated ASGPR) (Homo sapiens, UniProt P07306)
T1 construct: biotin (biotinylated)
T1 sequence (P07306 1-291): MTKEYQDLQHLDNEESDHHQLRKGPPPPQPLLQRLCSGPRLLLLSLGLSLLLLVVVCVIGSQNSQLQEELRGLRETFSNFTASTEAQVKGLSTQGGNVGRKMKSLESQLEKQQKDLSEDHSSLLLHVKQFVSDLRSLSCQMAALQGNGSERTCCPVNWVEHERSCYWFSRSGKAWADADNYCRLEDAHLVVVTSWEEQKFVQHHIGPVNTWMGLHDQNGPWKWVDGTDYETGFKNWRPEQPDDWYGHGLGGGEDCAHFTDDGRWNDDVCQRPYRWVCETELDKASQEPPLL
Assay type: binding
Conditions: SPR, Biacore 8K, 25° C., Table 1A, read-out: ASGPR KD

Row | SMILES | Kd (numeric bound) | Kd
1 | O=C(O)CNC(COCCC(=O)NC[C@H]1OC[C@H](Nc2cncc(C(F)(F)F)n2)[C@@H](O)[C@H]1O)COCCC(=O)NC[C@H]1OC[C@H](Nc2cncc(C(F)(F)F)n2)[C@@H](O)[C@H]1O [A23, (1,15-bis((2R,3R,4R,5S)-3,4-dihydroxy-5-((6-(trifluoromethyl)pyrazin-2-yl)amino)tetrahydro-2H-pyran-2-yl)-3,13-dioxo-6,10-dioxa-2,14-diazapentadecan-8-yl)glycine] | > 20 µM | 
2 | O=C(NC[C@H]1OC[C@H](Nc2cncc(C(F)(F)F)n2)[C@@H](O)[C@H]1O)c1cccc(F)c1 [A24, N-(((2R,3R,4R,5S)-3,4-dihydroxy-5-((6-(trifluoromethyl)pyrazin-2-yl)amino)tetrahydro-2H-pyran-2-yl)methyl)-3-fluorobenzamide] |  | < 10 µM
3 | O=C(NC[C@H]1OC[C@H](Nc2cncc(C(F)(F)F)n2)[C@@H](O)[C@H]1O)c1cncnc1 [A25, N-(((2R,3R,4R,5S)-3,4-dihydroxy-5-((6-(trifluoromethyl)pyrazin-2-yl)amino)tetrahydro-2H-pyran-2-yl)methyl)pyrimidine-5-carboxamide] |  | < 10 µM
4 | O=C(O)CNC[C@H]1OC[C@H](Nc2cncc(C(F)(F)F)n2)[C@@H](O)[C@H]1O [A26, (((2R,3R,4R,5S)-3,4-dihydroxy-5-((6-(trifluoromethyl)pyrazin-2-yl)amino)tetrahydro-2H-pyran-2-yl)methyl)glycine] |  | < 10 µM
5 | O=C(NC[C@H]1OC[C@H](Nc2cncc(C(F)(F)F)n2)[C@@H](O)[C@H]1O)c1ccnnc1 [A27, N-(((2R,3R,4R,5S)-3,4-dihydroxy-5-((6-(trifluoromethyl)pyrazin-2-yl)amino)tetrahydro-2H-pyran-2-yl)methyl)pyridazine-4-carboxamide] |  | < 10 µM
6 | O[C@@H]1[C@H](O)[C@@H](Nc2cncc(C(F)(F)F)n2)CO[C@@H]1CNc1cccnc1 [A28, (2R,3R,4R,5S)-2-((pyridin-3-ylamino)methyl)-5-((6-(trifluoromethyl)pyrazin-2-yl)amino)tetrahydro-2H-pyran-3,4-diol] |  | < 10 µM
7 | O=C(NC[C@H]1OC[C@H](Nc2cncc(C(F)(F)F)n2)[C@@H](O)[C@H]1O)c1cc(C(F)(F)F)n[nH]1 [A29, N-(((2R,3R,4R,5S)-3,4-dihydroxy-5-((6-(trifluoromethyl)pyrazin-2-yl)amino)tetrahydro-2H-pyran-2-yl)methyl)-3-(trifluoromethyl)-1H-pyrazole-5-carboxamide] |  | < 10 µM
8 | O=C(O)COCC(=O)NC[C@H]1OC[C@H](Nc2cncc(C(F)(F)F)n2)[C@@H](O)[C@H]1O [A30, 2-(2-((((2R,3R,4R,5S)-3,4-dihydroxy-5-((6-(trifluoromethyl)pyrazin-2-yl)amino)tetrahydro-2H-pyran-2-yl)methyl)amino)-2-oxoethoxy)acetic acid] |  | < 10 µM
9 | O=C(O)c1ccc(N2CCC(CN3CCN(C[C@H]4OC[C@H](Nc5cncc(C(F)(F)F)n5)[C@@H](O)[C@H]4O)CC3)CC2)cc1 [A31, 4-(4-((4-(((2R,3R,4R,5S)-3,4-dihydroxy-5-((6-(trifluoromethyl)pyrazin-2-yl)amino)tetrahydro-2H-pyran-2-yl)methyl)piperazin-1-yl)methyl)piperidin-1-yl)benzoic acid] |  | < 10 µM
10 | O=C(O)C1CCC(C(=O)NC[C@H]2OC[C@H](Nc3cncc(C(F)(F)F)n3)[C@@H](O)[C@H]2O)CC1 (stereo partly drawn) [A32, 4-((((2R,3R,4R,5S)-3,4-dihydroxy-5-((6-(trifluoromethyl)pyrazin-2-yl)amino)tetrahydro-2H-pyran-2-yl)methyl)carbamoyl)cyclohexane-1-carboxylic acid] |  | < 10 µM
11 | O=C(O)COCCOCCOCC(=O)NC[C@H]1OC[C@H](Nc2cncc(C(F)(F)F)n2)[C@@H](O)[C@H]1O [A33] |  | < 10 µM
12 | O=C(O)c1ccc(C(=O)NC[C@H]2OC[C@H](Nc3cncc(C(F)(F)F)n3)[C@@H](O)[C@H]2O)cc1 [A34, 4-((((2R,3R,4R,5S)-3,4-dihydroxy-5-((6-(trifluoromethyl)pyrazin-2-yl)amino)tetrahydro-2H-pyran-2-yl)methyl)carbamoyl)benzoic acid] |  | < 10 µM
13 | O=C(O)CNC(COCCC(=O)NCCOCCOCCOCCO[C@@H]1O[C@H](CO)[C@H](O)[C@H](O)[C@H]1Nc1cncc(C(F)(F)F)n1)COCCC(=O)NCCOCCOCCOCCO[C@@H]1O[C@H](CO)[C@H](O)[C@H](O)[C@H]1Nc1cncc(C(F)(F)F)n1 [A35, (1,35-bis(((2R,3R,4R,5R,6R)-4,5-dihydroxy-6-(hydroxymethyl)-3-((6-(trifluoromethyl)pyrazin-2-yl)amino)tetrahydro-2H-pyran-2-yl)oxy)-13,23-dioxo-3,6,9,16,20,27,30,33-octaoxa-12,24-diazapentatriacontan-18-yl)glycine] |  | < 10 µM
14 | O=C(NC[C@H]1OC[C@H](Nc2cncc(C(F)(F)F)n2)[C@@H](O)[C@H]1O)c1ccccc1 [A36, N-(((2R,3R,4R,5S)-3,4-dihydroxy-5-((6-(trifluoromethyl)pyrazin-2-yl)amino)tetrahydro-2H-pyran-2-yl)methyl)benzamide] |  | < 10 µM
15 | O[C@@H]1[C@H](O)[C@@H](Nc2cncc(C(F)(F)F)n2)CO[C@@H]1CNc1cccnn1 [A37, (2R,3R,4R,5S)-2-((pyridazin-3-ylamino)methyl)-5-((6-(trifluoromethyl)pyrazin-2-yl)amino)tetrahydro-2H-pyran-3,4-diol] |  | < 10 µM
16 | O=C(O)c1ccc(-c2ccc(C(=O)NC[C@H]3OC[C@H](Nc4cncc(C(F)(F)F)n4)[C@@H](O)[C@H]3O)cc2)cc1 [A38, 4′-((((2R,3R,4R,5S)-3,4-dihydroxy-5-((6-(trifluoromethyl)pyrazin-2-yl)amino)tetrahydro-2H-pyran-2-yl)methyl)carbamoyl)-[1,1′-biphenyl]-4-carboxylic acid] |  | < 10 µM
17 | O=C(NC[C@H]1OC[C@H](Nc2cncc(C(F)(F)F)n2)[C@@H](O)[C@H]1O)c1cc(F)ccn1 [A39, N-(((2R,3R,4R,5S)-3,4-dihydroxy-5-((6-(trifluoromethyl)pyrazin-2-yl)amino)tetrahydro-2H-pyran-2-yl)methyl)-4-fluoropicolinamide] |  | < 10 µM
18 | O=C(NC[C@H]1OC[C@H](Nc2cncc(C(F)(F)F)n2)[C@@H](O)[C@H]1O)c1ncc[nH]1 [A40, N-(((2R,3R,4R,5S)-3,4-dihydroxy-5-((6-(trifluoromethyl)pyrazin-2-yl)amino)tetrahydro-2H-pyran-2-yl)methyl)-1H-imidazole-2-carboxamide] |  | < 10 µM
19 | O[C@@H]1[C@H](O)[C@@H](Nc2cncc(C(F)(F)F)n2)CO[C@@H]1CNc1ccnnc1 [A41, (2R,3R,4R,5S)-2-((pyridazin-4-ylamino)methyl)-5-((6-(trifluoromethyl)pyrazin-2-yl)amino)tetrahydro-2H-pyran-3,4-diol] |  | < 10 µM
20 | O=C(NC[C@H]1OC[C@H](Nc2cncc(C(F)(F)F)n2)[C@@H](O)[C@H]1O)c1n[nH]c2ccccc12 [A44, N-(((2R,3R,4R,5S)-3,4-dihydroxy-5-((6-(trifluoromethyl)pyrazin-2-yl)amino)tetrahydro-2H-pyran-2-yl)methyl)-1H-indazole-3-carboxamide] |  | < 10 µM
21 | NCCCCCC(=O)NC(COCCC(=O)NCCOCCOCCOCCOC[C@H]1OC[C@H](Nc2nccc(C(F)(F)F)n2)[C@@H](O)[C@H]1O)COCCC(=O)NCCOCCOCCOCCOC[C@H]1OC[C@H](Nc2nccc(C(F)(F)F)n2)[C@@H](O)[C@H]1O [A45, 3,3′-((2-(6-aminohexanamido)propane-1,3-diyl)bis(oxy))bis(N-(1-((2R,3R,4R,5S)-3,4-dihydroxy-5-((4-(trifluoromethyl)pyrimidin-2-yl)amino)tetrahydro-2H-pyran-2-yl)-2,5,8,11-tetraoxatridecan-13-yl)propanamide)] |  | < 10 µM
22 | O=C(NC[C@H]1OC[C@H](Nc2cncc(C(F)(F)F)n2)[C@@H](O)[C@H]1O)c1cnco1 [A48, N-(((2R,3R,4R,5S)-3,4-dihydroxy-5-((6-(trifluoromethyl)pyrazin-2-yl)amino)tetrahydro-2H-pyran-2-yl)methyl)oxazole-5-carboxamide] |  | < 10 µM
23 | O=C(NC[C@H]1OC[C@H](Nc2cncc(C(F)(F)F)n2)[C@@H](O)[C@H]1O)c1ccn[nH]1 [A49] |  | < 10 µM
24 | O=C(NC[C@H]1OC[C@H](Nc2cncc(C(F)(F)F)n2)[C@@H](O)[C@H]1O)c1ncco1 [A50] |  | < 10 µM
25 | O=C(O)c1ccc2c(c1)C(F)(F)c1cc(C(=O)NC[C@H]3OC[C@H](Nc4cncc(C(F)(F)F)n4)[C@@H](O)[C@H]3O)ccc1-2 [A52] |  | < 10 µM
26 | NCCOCCOCCOC[C@H]1OC[C@H](Nc2cncc(C(F)(F)F)n2)[C@@H](O)[C@H]1O [A53, (2R,3R,4R,5S)-2-((2-(2-(2-aminoethoxy)ethoxy)ethoxy)methyl)-5-((6-(trifluoromethyl)pyrazin-2-yl)amino)tetrahydro-2H-pyran-3,4-diol] |  | < 10 µM
27 | OC[C@H]1CC[C@H](Nc2nccc(C(F)(F)F)n2)[C@@H](O)[C@H]1O [A54, (1R,2S,3R,6S)-3-(hydroxymethyl)-6-((4-(trifluoromethyl)pyrimidin-2-yl)amino)cyclohexane-1,2-diol] |  | 10 to 100 µM
28 | CC(NC[C@H]1OC[C@H](Nc2cncc(C(F)(F)F)n2)[C@@H](O)[C@H]1O)c1ncccn1 (stereo partly drawn) [A55, (2R,3R,4R,5S)-2-(((1-(pyrimidin-2-yl)ethyl)amino)methyl)-5-((6-(trifluoromethyl)pyrazin-2-yl)amino)tetrahydro-2H-pyran-3,4-diol] |  | < 10 µM
29 | O[C@@H]1[C@H](O)[C@@H](Nc2cncc(C(F)(F)F)n2)CO[C@@H]1COCCOCCNc1cnccn1 [A56, (2R,3R,4R,5S)-2-((2-(2-(pyrazin-2-ylamino)ethoxy)ethoxy)methyl)-5-((6-(trifluoromethyl)pyrazin-2-yl)amino)tetrahydro-2H-pyran-3,4-diol] |  | < 10 µM
